Source: US20110183336A1, “Method to Predict Responsiveness of Breast Cancer to Polyamine-Type Chemotherapy” (THE REGENTS OF THE UNIVERSITY OF CALIFORNIA, priority 2007, published 2011)

Legend:
Assay in all cases: Cell growth inhibition assay (Cell Titer Glo)
Assay type in all cases: cell-based, human
[1] = system: MCF7; conditions: MCF7, Luminal, 72 h
Protocol: (§1) Cell culture: Breast cell lines were obtained from the ATCC and from collections developed in the laboratories of Drs. Steve Ethier and Adi Gazdar.
(§2) Cell growth inhibition assay and data analysis: Cells were plated at proper density in 96-well plates such that they would remain in log growth at the end of assay time. The cells were allowed to attach overnight before being exposed to CGC-11047 for 72 h. Drugs were dissolved in water as 100 mM stock. For the dose response study, a set of 9 doses from 5×10^−3 to 1.3×10^−8 M (final concentration) in 1:5 serial dilution were added in triplicate wells. The final DMSO concentration in the treated well was 0.3% or less. The cell growth was determined using Cell Titer Glo (CTG) assay (CellTiter-Glo Luminescent Cell Viability Assay, Promega, Madison, Wis.), with slight modification form manufacturer's protocol, at day 0 (time when drug was added) and at day 3 of drug exposure. Briefly, CTG reagent was diluted with PBS (1:1, volume: volume) and the culture media was removed from the 96-well plate prior to adding 50 μl per well of the diluted CTG reagent. Luminescence from the assay was recorded using BIO-TEK FLx800.
(§3) Data calculations were made according to the method described by the NCI/NIH DTP Human Tumor Cell Line Screen Process (http://dtp.nci.nih.gov/branches/btb/ivclsp.html) and as described previously (Monks, A et al., JNCI 83:757-766, 1991). The percent growth curve is calculated as [(T−T0)/(C−T0)]×100, where T0 is the cell count at day 0, C is the vehicle control (e.g. 0.3% DMSO without drug) cell count at day 3, and T is the cell count at the test concentration. The GI50 and TGI value are determined as the drug concentration that results in a 50% and 0% growth at 72 h drug exposure. LC50 is calculated as [(T−T0)/T0]×100=−50, when T<T0.

[2] = system: ZR7530; conditions: ZR7530, Luminal, 72 h
Protocol: as §1, §2, §3

[3] = system: HCC1806; conditions: HCC1806, Basal A, 72 h
Protocol: as §1, §2, §3

[4] = system: MDAMB453; conditions: MDAMB453, Luminal, 72 h
Protocol: as §1, §2, §3

[5] = system: ZR751; conditions: ZR751, Luminal, 72 h
Protocol: as §1, §2, §3

[6] = system: HCC1428; conditions: HCC1428, Luminal, 72 h
Protocol: as §1, §2, §3

[7] = system: HCC38; conditions: HCC38, Basal B, 72 h
Protocol: as §1, §2, §3

[8] = system: HCC70; conditions: HCC70, Basal A, 72 h
Protocol: as §1, §2, §3

[9] = system: HCC1569; conditions: HCC1569, Basal A, 72 h
Protocol: as §1, §2, §3

[10] = system: HCC1143; conditions: HCC1143, Basal A, 72 h
Protocol: as §1, §2, §3

[11] = system: MDAMB436; conditions: MDAMB436, Basal B, 72 h
Protocol: as §1, §2, §3

[12] = system: ZR75B; conditions: Luminal, 72 h
Protocol: as §1, §2, §3

[13] = system: CAMA1; conditions: CAMA1, Luminal, 72 h
Protocol: as §1, §2, §3

[14] = system: T47D; conditions: Luminal, 72 h
Protocol: as §1, §2, §3

[15] = system: UACC812; conditions: UACC812, Luminal, 72 h
Protocol: as §1, §2, §3

[16] = system: MDAMB415; conditions: MDAMB415, Luminal, 72 h
Protocol: as §1, §2, §3

[17] = system: MDAMB468; conditions: MDAMB468, Basal A, 72 h
Protocol: as §1, §2, §3

[18] = system: SUM149PT; conditions: Basal B, 72 h
Protocol: as §1, §2, §3

[19] = system: SUM185PE; conditions: Luminal, 72 h
Protocol: as §1, §2, §3

[20] = system: MDAMB175VII; conditions: Luminal, 72 h
Protocol: as §1, §2, §3

[21] = system: MDAMB231; conditions: MDAMB231, Basal B, 72 h
Protocol: as §1, §2, §3

[22] = system: MDAMB157; conditions: MDAMB157, Basal B, 72 h
Protocol: as §1, §2, §3

[23] = system: 184A1; conditions: 184A1, HMEC, 72 h
Protocol: as §1, §2, §3

In the case of `CCNCCCNC/C=C\CNCCCNCC` [CGC-11047], the GI50 ([1]; Homo sapiens) is reported as 90 µM, the “TGI” value [1] is reported as 1.2 mM and the GI50 ([2]; Homo sapiens, ZR-75-30) is reported as 800 nM. For the same compound, the “TGI” value [2] was 1 mM, the “TGI” value [3] was 330 µM and the GI50 ([3]; Homo sapiens) was 600 nM. The GI50 ([4]; Homo sapiens, MDA-MB-453) was 500 µM, the “TGI” value [4] was greater than 500 µM and the GI50 ([5]; Homo sapiens, ZR-75-1) was 13 µM. For the same compound, the “TGI” value [5] was 800 µM, the “TGI” value [6] was 300 µM and the GI50 ([6]; Homo sapiens) was 1000 nM. The “TGI” value [7] was 300 µM, the GI50 ([7]; Homo sapiens) was 40 µM and the “TGI” value [8] was 530 nM. The GI50 ([8]; Homo sapiens) was 400 nM, the “TGI” value [9] was 2 mM and the GI50 ([9]; Homo sapiens) was 220 µM. For the same compound, the “TGI” value [10] was 320 µM, the GI50 ([10]; Homo sapiens) was 2000 nM and the GI50 ([11]; Homo sapiens, MDA-MB-436) was 1 mM. For the same compound, the “TGI” value [11] was 3 mM, the GI50 ([12]; Homo sapiens, ZR-75B) was 200 µM and the “TGI” value [12] was 2 mM. For the same compound, the “TGI” value [13] was 1.1 mM, the GI50 ([13]; Homo sapiens, CAMA-1) was 350 µM and the GI50 ([14]; Homo sapiens) was 400 nM. The “TGI” value [14] was 200 µM, the GI50 ([15]; Homo sapiens, UACC-812) was 21 µM and the “TGI” value [15] was 300 µM. The GI50 ([16]; Homo sapiens, MDA-MB-415) was 20 µM, the “TGI” value [16] was 100 µM and the GI50 ([17]; Homo sapiens, MDA-MB-468) was 500 nM. The “TGI” value [17] was 2 mM, the “TGI” value [18] was 800 µM and the GI50 ([18]; Homo sapiens) was 2000 nM. For the same compound, the GI50 ([19]; Homo sapiens) was 300 µM, the “TGI” value [19] was greater than 500 µM and the GI50 ([20]; Homo sapiens, MDA-MB-175-VII) was 1 mM. For the same compound, the “TGI” value [20] was 2 mM, the GI50 ([21]; Homo sapiens, MDA-MB-231) was 2 mM and the “TGI” value [21] was greater than 5 mM. The GI50 ([22]; Homo sapiens, MDA-MB-157) was 200 µM, the “TGI” value [22] was 1 mM and the “TGI” value [23] was 220 µM. The GI50 ([23]; Homo sapiens) was 2000 nM.
